These results are taken from patent publication US20250339569A1, “CARBONIC ANHYDRASE IX LIGANDS” (priority 2021, published 2025).

Starred links: 1 amine or outer side, 2 acyl side, 3 side chain; linkers in the order of their positions; H or OH if unused. Positions of bridges follow the written chain, without caps; N, C: chain ends. Non-standard residues stand in square brackets, D forms with d. Residues, ends and D or L forms follow the SMILES beside them. *: point of attachment. Phe(3-NHCO(CH2)3SO2NH2) = N[C@@H](Cc1cccc(NC(=O)CCCS(N)(=O)=O)c1)C(=O)O; X3 = O=C(O)CN1CCN(CC(=O)O)CCN(CC(=O)NCCCOCCOCCOCCCN*)CCN(CC(=O)O)CC1; X57 = O=C(Cn1ccccc1=O)Nc1cccc(C[C@H](N[*:1])C(=O)[*:2])c1; X62 = O=C(Nc1cccc(C[C@H](N[*:1])C(=O)[*:2])c1)c1c[nH]cn1; DOTA = O=C(O)CN1CCN(CC(=O)O)CCN(CC(=O)*)CCN(CC(=O)O)CC1; NGly(3-aminopropyl) = O=C(CN(CCCN[*:3])[*:1])[*:2]; Phe(4-NH2) = Nc1ccc(C[C@H](N)C(=O)O)cc1; mXylylene = c1cc(C[*:1])cc(C[*:2])c1; X2 = O=C(CN1CCC(N[*:1])CC1)[*:2]; tBuAla = CC(C)(C)C[C@H](N)C(=O)O; X1 = O=C(CN1CCN([*:1])CC1)[*:2]; Pen = CC(C)(S)[C@H](N)C(=O)O; Suc = O=C(CCC(=O)[*:2])[*:1]; Isovaleryl = CC(C)CC(=O)*; Ac6c = NC1(C(=O)O)CCCCC1; APAc = not defined here; Dab = NCC[C@H](N)C(=O)O; PhAc = O=C(Cc1ccccc1)*; X70 = N#Cc1ccc(CN*)cc1; Propionyl = CCC(=O)*; Bn = c1ccc(C*)cc1; Sar = CNCC(=O)O Where only a bound is given, the exact number is not on record here.

In one test the target is T1, CAIX-expressing human HT-29 colorectal cancer cells (Homo sapiens, UniProt Q16790).
T1 construct: CAIX-expressing human HT-29 colorectal cancer cells; host or cells: HT-29 human colorectal cancer cells
Kind of test: FACS binding assay (IC50 determination, competition with tracer 3BP-2776 or 3BP-4149).
Conditions: not given
In a few lines: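 HT-29 cells in FACS buffer (PBS, 1% FCS) at 500.000 cells/ml were exposed to compounds competing with a labelled tracer, with biotinylated compounds detected by 1 μg/mL APC-streptavidin for 30 min on ice. APC/Cy5 median fluorescence was read by flow cytometry and IC50 derived by 4PL fit.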
(In general: A flow cytometer gives signals particle by particle.)
`CC(C)C[C@@H]1NC(=O)[C@H](Cc2ccc(OCc3ccccc3)cc2)NC(=O)[C@H](CC(=O)O)NC(=O)[C@H]2CCCN2C(=O)[C@H](CCC(=O)O)NC(=O)[C@@H](NC(=O)[C@H](Cc2ccc(O)cc2)NC(=O)[C@@H](NC(=O)CN2CCC(NC(=O)CN3CCN(CC(=O)O)CCN(CC(=O)O)CCN(CC(=O)O)CC3)CC2)C(C)C)CSCc2cccc(c2)CSC[C@@H](C(N)=O)NC(=O)[C@H](CO)NC(=O)[C@H](Cc2c[nH]c3ccccc23)NC(=O)[C@H]([C@@H](C)O)NC1=O` [3BP-4137] ({DOTA}-[X2]VYCE[dP]DY(Bn)LTWSC-NH2; linker 4-13 via mXylylene) registered an IC50 of 10 to 79.4 nM.

The compound `CC(C)C[C@@H]1NC(=O)[C@H](Cc2c[nH]c3ccccc23)NC(=O)[C@H](CC(=O)O)NC(=O)CNC(=O)[C@H](CCC(=O)O)NC(=O)[C@@H](NC(=O)[C@H](Cc2ccc(O)cc2)NC(=O)[C@@H](NC(=O)Cc2ccccc2)C(C)C)CSCc2cccc(c2)CSC[C@@H](C(N)=O)NC(=O)[C@H](CCC(N)=O)NC(=O)[C@H](Cc2c[nH]c3ccccc23)NC(=O)[C@H]([C@@H](C)O)NC1=O` [3BP-3109] (PhAc-VYCEGDWLTWQC-NH2; linker 3-12 via mXylylene) returned an IC50 of under 10 nM.

Still in this test, the particulars now being: FACS binding assay, HT-29 cells, competition with tracer 3BP-2776 (10 nM, biotin-labeled), 4° C., 1 hour.
With “3BP-4252 ({DOTA-APAc}-VYCEG[NGly(3-aminopropyl)]WLEWSC-NH2; linker 3-12 via mXylylene; lactam 6-9; reading uncertain)”, the “pIC50 category (activity)” value is “B (pIC50 values between 7.1 and 8.0)”.

The test is the same for the next values; noted with them: FACS binding assay, HT-29 cells, competition with tracer 3BP-2776 (10 nM, biotin-labeled), 4° C., 1 hour; read-out: pIC50 category (activity) (converted).
Regarding `CC(=O)N[C@H](C(=O)N[C@@H](Cc1ccc(O)cc1)C(=O)N[C@H]1CSCc2cccc(c2)CSC[C@@H](C(N)=O)NC(=O)[C@H](CO)NC(=O)[C@H](Cc2c[nH]c3ccccc23)NC(=O)[C@@H]2CCC(=O)NCC[C@H](NC(=O)[C@H]3CCCN3C(=O)[C@H](CCC(=O)O)NC1=O)C(=O)N[C@@H](Cc1c[nH]c3ccccc13)C(=O)N[C@@H](CC(C)C)C(=O)N2)C(C)C` [3BP-3960] (Ac-VYCE[dP][Dab]WLEWSC-NH2; linker 3-12 via mXylylene; lactam 6-9), the IC50 was 10 to 79.4 nM.

Consider `C[C@@H](O)[C@@H]1NC(=O)[C@H](CC(C)(C)C)NC(=O)[C@H](Cc2cccc(NC(=O)CCCS(N)(=O)=O)c2)NC(=O)[C@H](CC(=O)O)NC(=O)[C@H]2CCCN2C(=O)[C@H](CCC(=O)O)NC(=O)[C@@H](NC(=O)[C@H](Cc2ccc(O)cc2)NC(=O)CN2CCN(C(=O)CN3CCN(CC(=O)O)CCN(CC(=O)O)CCN(CC(=O)O)CC3)CC2)CSCc2cccc(c2)CSC[C@@H](C(N)=O)NC(=O)[C@H](CO)NC(=O)[C@H](Cc2c[nH]c3ccccc23)NC1=O` [3BP-4449] ({DOTA}-[X1]YCE[dP]D[Phe(3-NHCO(CH2)3SO2NH2)][tBuAla]TWSC-NH2; linker 3-12 via mXylylene), for which the IC50 was under 10 nM.

For `CC(C)C[C@@H]1NC(=O)[C@H](Cc2cccc(NC(=O)C3CCC(S(N)(=O)=O)CC3)c2)NC(=O)[C@H](CC(=O)O)NC(=O)[C@H]2CCCN2C(=O)[C@H](CCC(=O)O)NC(=O)[C@@H](NC(=O)[C@H](CCC(N)=O)NC(=O)CN2CCN(C(=O)CN3CCN(CC(=O)O)CCN(CC(=O)O)CCN(CC(=O)O)CC3)CC2)CSCc2cccc(c2)CSC[C@@H](C(N)=O)NC(=O)[C@H](CO)NC(=O)[C@H](Cc2c[nH]c3ccccc23)NC(=O)[C@H]([C@@H](C)O)NC1=O` (stereo partly shown) [3BP-4787], the IC50 is 100 to 794 nM.

In the case of `CC(=O)N[C@H](C(=O)N[C@@H](Cc1ccc(O)cc1)C(=O)N[C@H]1CSCc2cccc(c2)CSC[C@@H](C(N)=O)NC(=O)[C@H](CO)NC(=O)[C@H](Cc2c[nH]c3ccccc23)NC(=O)[C@@H]2CCC(=O)NCCCC[C@H](NC(=O)[C@H]3CCCN3C(=O)[C@H](CCC(=O)O)NC1=O)C(=O)N[C@@H](Cc1c[nH]c3ccccc13)C(=O)NC1(CCCCC1)C(=O)N2)C(C)C` [3BP-3961] (Ac-VYCE[dP]KW[Ac6c]EWSC-NH2; linker 3-12 via mXylylene; lactam 6-9), the IC50 was 10 to 79.4 nM.

On to `CC(C)C[C@@H]1NC(=O)[C@H](Cc2cccc(NC(=O)c3c[nH]cn3)c2)NC(=O)[C@H](CC(=O)O)NC(=O)[C@H]2CCCN2C(=O)[C@H](CCC(=O)O)NC(=O)[C@@H](NC(=O)[C@H](Cc2ccc(O)cc2)NC(=O)[C@@H](NC(=O)CN2CCC(NC(=O)CN3CCN(CC(=O)O)CCN(CC(=O)O)CCN(CC(=O)O)CC3)CC2)C(C)C)CSCc2cccc(c2)CSC[C@@H](C(N)=O)NC(=O)[C@H](CO)NC(=O)[C@H](Cc2c[nH]c3ccccc23)NC(=O)[C@H]([C@@H](C)O)NC1=O` [3BP-4240] ({DOTA}-[X2]VYCE[dP]D[X62]LTWSC-NH2; linker 4-13 via mXylylene), for which the IC50 is 10 to 79.4 nM.

Still in this test, the particulars now being: FACS binding assay, HT-29 cells, competition with tracer 3BP-4149 (3 nM, Cy5-labeled), 4° C., 1 hour; read-out: pIC50 category (activity) (converted).
As to `CCC(=O)Nc1ccc(C[C@@H]2NC(=O)[C@H](CC(=O)O)NC(=O)[C@H]3CCCN3C(=O)[C@H](CCC(=O)O)NC(=O)[C@@H](NC(=O)[C@H](Cc3ccc(O)cc3)NC(=O)[C@@H](NC(=O)CN3CCC(NC(=O)CN4CCN(CC(=O)O)CCN(CC(=O)O)CCN(CC(=O)O)CC4)CC3)C(C)C)CSCc3cccc(c3)CSC[C@@H](C(N)=O)NC(=O)[C@H](CO)NC(=O)[C@H](Cc3c[nH]c4ccccc34)NC(=O)[C@H]([C@@H](C)O)NC(=O)[C@H](CC(C)C)NC2=O)cc1` [3BP-4347] ({DOTA}-[X2]VYCE[dP]D[Phe(4-NH2)](Propionyl)LTWSC-NH2; linker 4-13 via mXylylene), the IC50 was 100 to 794 nM.

On to `CC(C)C[C@@H]1NC(=O)[C@H](Cc2c[nH]c3ccccc23)NC(=O)[C@H](CCC(=O)NCc2ccc(C#N)cc2)NC(=O)[C@H]2CCCN2C(=O)[C@H](CCC(=O)O)NC(=O)[C@@H](NC(=O)[C@H](Cc2ccc(O)cc2)NC(=O)[C@@H](NC(=O)CN2CCC(NC(=O)CN3CCN(CC(=O)O)CCN(CC(=O)O)CCN(CC(=O)O)CC3)CC2)C(C)C)CSCc2cccc(c2)CSC[C@@H](C(N)=O)NC(=O)[C@H](CO)NC(=O)[C@H](Cc2c[nH]c3ccccc23)NC(=O)[C@H]([C@@H](C)O)NC1=O` [3BP-4340] ({DOTA}-[X2]VYCE[dP]E(X70)WLTWSC-NH2; linker 4-13 via mXylylene), for which the IC50 was 10 to 79.4 nM.

On to `CC(C)C[C@@H]1NC(=O)[C@H](Cc2cccc(NC(=O)Cn3ccccc3=O)c2)NC(=O)[C@H](CC(=O)O)NC(=O)[C@H]2CCCN2C(=O)[C@H](CCC(=O)O)NC(=O)[C@@H](NC(=O)[C@H](Cc2ccc(O)cc2)NC(=O)[C@@H](NC(=O)CN2CCC(NC(=O)CN3CCN(CC(=O)O)CCN(CC(=O)O)CCN(CC(=O)O)CC3)CC2)C(C)C)CSCc2cccc(c2)CSC[C@@H](C(N)=O)NC(=O)[C@H](CO)NC(=O)[C@H](Cc2c[nH]c3ccccc23)NC(=O)[C@H]([C@@H](C)O)NC1=O` [3BP-4370] ({DOTA}-[X2]VYCE[dP]D[X57]LTWSC-NH2; linker 4-13 via mXylylene), for which the IC50 is 10 to 79.4 nM.

Still in this test, the particulars now being: FACS competition on HT-29 cells, Tracer ID 3BP-2776 (10 nM, biotin-labeled), 4° C., 1 hour; read-out: pIC50 category (activity) (converted).
Consider `CC(C)C[C@@H]1NC(=O)[C@H](Cc2c[nH]c3ccccc23)NC(=O)[C@H](CC(=O)O)NC(=O)CN(C)C(=O)[C@H](CCC(=O)O)NC(=O)[C@@H](NC(=O)[C@H](Cc2ccc(O)cc2)NC(=O)[C@@H](NC(=O)CCC(=O)NCCCOCCOCCOCCCNC(=O)CN2CCN(CC(=O)O)CCN(CC(=O)O)CCN(CC(=O)O)CC2)C(C)C)CSCc2cccc(c2)CSC[C@@H](C(N)=O)NC(=O)[C@H](C)NC(=O)[C@H](Cc2c[nH]c3ccccc23)NC(=O)[C@H]([C@@H](C)O)NC1=O` [3BP-3278] ({X3-Suc}-VYCE[Sar]DWLTWAC-NH2; linker 3-12 via mXylylene), for which the IC50 is 10 to 79.4 nM.

With `CC(C)CC(=O)N[C@@H](Cc1ccc(O)cc1)C(=O)N[C@H]1CSCc2cccc(c2)CSC[C@@H](C(N)=O)NC(=O)[C@H](CO)NC(=O)[C@H](Cc2c[nH]c3ccccc23)NC(=O)[C@H]([C@@H](C)O)NC(=O)[C@H](CC(C)C)NC(=O)[C@H](Cc2c[nH]c3ccccc23)NC(=O)[C@H](CC(=O)O)NC(=O)[C@H]2CCCN2C(=O)[C@H](CCC(=O)O)NC1=O` [3BP-3569] (Isovaleryl-YCE[dP]DWLTWSC-NH2; linker 2-11 via mXylylene), the IC50 was under 10 nM.

`CC(=O)N[C@H](C(=O)N[C@@H](Cc1ccc(O)cc1)C(=O)N[C@H]1CSCc2cccc(c2)CSC(C)(C)[C@@H](C(N)=O)NC(=O)[C@H](C)NC(=O)[C@H](Cc2c[nH]c3ccccc23)NC(=O)[C@H]([C@@H](C)O)NC(=O)[C@H](CC(C)(C)C)NC(=O)[C@H](Cc2c[nH]c3ccccc23)NC(=O)[C@H](CC(=O)O)NC(=O)[C@H]2CCCN2C(=O)[C@H](CCC(=O)O)NC1=O)C(C)C` [3BP-3493] (Ac-VYCE[dP]DW[tBuAla]TWA[Pen]-NH2; linker 3-12 via mXylylene): the IC50 is under 10 nM.

As for `CC(=O)N[C@H](C(=O)N[C@@H](Cc1ccc(O)cc1)C(=O)N[C@H]1CSCc2cccc(c2)CSC[C@@H](C(N)=O)NC(=O)CNC(=O)[C@H](Cc2c[nH]c3ccccc23)NC(=O)[C@H]([C@@H](C)O)NC(=O)[C@H](CC(C)C)NC(=O)[C@H](Cc2c[nH]c3ccccc23)NC(=O)[C@H](CC(=O)O)NC(=O)[C@@H](C)NC(=O)[C@H](CCC(=O)O)NC1=O)C(C)C` [3BP-3284] (Ac-VYCE[dA]DWLTWGC-NH2; linker 3-12 via mXylylene), the IC50 was under 10 nM.

Consider `CC(=O)N[C@H](C(=O)N[C@@H](Cc1ccc(O)cc1)C(=O)N[C@H]1CSCc2cccc(c2)CSC[C@@H](C(N)=O)NC(=O)[C@H](CCC(N)=O)NC(=O)[C@H](Cc2c[nH]c3ccccc23)NC(=O)[C@H]([C@@H](C)O)NC(=O)[C@H](CC(C)C)NC(=O)[C@H](Cc2c[nH]c3ccccc23)NC(=O)[C@@H](CC(=O)O)NC(=O)CNC(=O)[C@H](CCC(=O)O)NC1=O)C(C)C` [3BP-3047] (Ac-VYCEG[dD]WLTWQC-NH2; linker 3-12 via mXylylene), for which the IC50 is 100 to 794 nM.
